From patent US20080107625A1, “Inhibitors of Hepatitis C Virus” (Bristol-Myers Squibb Company, priority 2006, published 2008)

Assays:
[1] = tested on: HCV replicon in HUH-7 cells; experiment: HCV replicon FRET assay; format: cell-based, HCV strain 1b; conditions: Hepatitis C virus, 96 h, 4 days
Text: (§1) An HCV replicon whole cell system was established as described by Lohmann V, Korner F, Koch J, Herian U, Theilmann L, Bartenschlager R., Science 285(5424): 110-3 (1999). This system enabled us to evaluate the effects of our HCV Protease compounds on HCV RNA replication. Briefly, using the HCV strain 1b sequence described in the Lohmann paper (Assession number: AJ238799), an HCV cDNA was synthesized by Operon Technologies, Inc. (Alameda, Calif.), and the full-length replicon was then assembled in plasmid pGem9zf(+) (Promega, Madison, Wis.) using standard molecular biology techniques. […]
The HCV replicon FRET assay was developed to monitor the inhibitory effects of compounds described in the disclosure on HCV viral replication. […] After 4 days, cells were first assessed for cytotoxicity using alamar Blue (Trek Diagnostic Systems) for a CC50 reading. The toxicity of compound (CC50) was determined by adding 1/10th volume of alamar Blue to the media incubating the cells. After 4 hours, the fluorescence signal from each well was read, with an excitation wavelength at 530 nm and an emission wavelength of 580 nm, using the Cytofluor Series 4000 (Perspective Biosystems). […]

[2] = tested on: HCV replicon (Renilla luciferase reporter) in HUH-7 cells; experiment: HCV replicon luciferase reporter assay; format: cell-based, HCV strain 1b; conditions: Huh-7, 96 h; 4 days
Text: as §1
As a secondary assay, EC50 determinations from the replicon FRET assay were confirmed in a replicon luciferase reporter assay. […] Following 4 days in a 37° C./5% CO2 incubator, cells were analyzed for Renilla Luciferase activity using the Promega Dual-Glo Luciferase Assay System. […] Plates were read on a Packard TopCount NXT using a luminescence program.
The percentage inhibition was calculated using the formula below: • % control=average luciferase signal in experimental wells (+compound) • average luciferase signal in DMSO control wells (−compound)
The values were graphed and analyzed using XLfit to obtain the EC50 value.

[3] = target: T1, human pancreatic chymotrypsin (Homo sapiens, UniProt P17538); experiment: Specificity assay, chymotrypsin; format: biochemical
T1 construct: purchased Sigma or EMDbiosciences
T1 sequence (P17538 19-263): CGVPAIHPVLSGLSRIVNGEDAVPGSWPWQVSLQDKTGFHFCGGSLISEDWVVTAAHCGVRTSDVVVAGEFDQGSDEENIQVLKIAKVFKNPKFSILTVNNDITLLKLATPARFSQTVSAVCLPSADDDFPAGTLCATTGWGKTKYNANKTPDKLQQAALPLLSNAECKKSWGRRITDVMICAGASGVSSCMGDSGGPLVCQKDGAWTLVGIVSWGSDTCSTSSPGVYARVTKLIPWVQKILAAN
Procedure: The specificities of compounds of the present disclosure were determined against a variety of serine proteases: human neutrophil elastase (HNE), porcine pancreatic elastase (PPE) and human pancreatic chymotrypsin and one cysteine protease: human liver cathepsin B. In all cases, a 96-well plate format protocol using colorimetric p-nitroaniline (pNA) substrate or fluorometric Amino-Methyl-Coumarin (AMC) substrate, specific for each enzyme was used as described previously (PCT Patent Application No. WO 00/09543) with some modifications. All enzymes were purchased from Sigma or EMDbiosciences while the substrates were from Bachem.
Each pNA assay included a 2 h enzyme-inhibitor pre-incubation at room temperature followed by addition of substrate and hydrolysis to ˜15% conversion as measured on a Spectramax Pro microplate reader. The cathepsin B assay was initiated by adding substrate to a 10 min enzyme-inhibitor pre-incubation at room temperature, and the assay plate measured immediately using the Cytofluor Series 4000. Compound concentrations varied from 100 to 0.4 μM depending on their potency.
50 mM Tris(hydroxymethyl)aminomethane hydrochloride (Tris-HCl) pH 8, 0.5 M Sodium Sulfate (Na2SO4), 50 mM NaCl, 0.1 mM EDTA, 3% DMSO, 0.01% Tween-20 with: […]
The percentage of inhibition was calculated using the formula: [1−((UVinh−UVblank)/(UVctl−UVblank))]×100 […]

Structure (SMILES): CC(C)(C)OC(=O)N[C@H]1CN(C2CC2)CCC/C=C\C2C[C@@]2(C(=O)NS(=O)(=O)C2CC2)NC(=O)[C@@H]2C[C@@H](Oc3ccccn3)CN2C1=O (stereo partly drawn) [Compound 1]
- EC50 [1]: 1.09 µM
- EC50 [2]: 0.202 µM
- IC50 [3]: > 100 µM
